Results: PMC11221864, “FRAX486, a PAK inhibitor, overcomes ABCB1-mediated multidrug resistance in breast cancer cells” (Brazilian Journal of Medical and Biological Research, 2024)

Molecular target: T1, ABCB1 (Homo sapiens, UniProt P08183)
T1 construct: ABCB1 in membrane vesicles from High Five insect cells
Experiment: vanadate-sensitive ATPase assay in membrane vesicles
Assay type: biochemical

T1 sequence (P08183 whole entry): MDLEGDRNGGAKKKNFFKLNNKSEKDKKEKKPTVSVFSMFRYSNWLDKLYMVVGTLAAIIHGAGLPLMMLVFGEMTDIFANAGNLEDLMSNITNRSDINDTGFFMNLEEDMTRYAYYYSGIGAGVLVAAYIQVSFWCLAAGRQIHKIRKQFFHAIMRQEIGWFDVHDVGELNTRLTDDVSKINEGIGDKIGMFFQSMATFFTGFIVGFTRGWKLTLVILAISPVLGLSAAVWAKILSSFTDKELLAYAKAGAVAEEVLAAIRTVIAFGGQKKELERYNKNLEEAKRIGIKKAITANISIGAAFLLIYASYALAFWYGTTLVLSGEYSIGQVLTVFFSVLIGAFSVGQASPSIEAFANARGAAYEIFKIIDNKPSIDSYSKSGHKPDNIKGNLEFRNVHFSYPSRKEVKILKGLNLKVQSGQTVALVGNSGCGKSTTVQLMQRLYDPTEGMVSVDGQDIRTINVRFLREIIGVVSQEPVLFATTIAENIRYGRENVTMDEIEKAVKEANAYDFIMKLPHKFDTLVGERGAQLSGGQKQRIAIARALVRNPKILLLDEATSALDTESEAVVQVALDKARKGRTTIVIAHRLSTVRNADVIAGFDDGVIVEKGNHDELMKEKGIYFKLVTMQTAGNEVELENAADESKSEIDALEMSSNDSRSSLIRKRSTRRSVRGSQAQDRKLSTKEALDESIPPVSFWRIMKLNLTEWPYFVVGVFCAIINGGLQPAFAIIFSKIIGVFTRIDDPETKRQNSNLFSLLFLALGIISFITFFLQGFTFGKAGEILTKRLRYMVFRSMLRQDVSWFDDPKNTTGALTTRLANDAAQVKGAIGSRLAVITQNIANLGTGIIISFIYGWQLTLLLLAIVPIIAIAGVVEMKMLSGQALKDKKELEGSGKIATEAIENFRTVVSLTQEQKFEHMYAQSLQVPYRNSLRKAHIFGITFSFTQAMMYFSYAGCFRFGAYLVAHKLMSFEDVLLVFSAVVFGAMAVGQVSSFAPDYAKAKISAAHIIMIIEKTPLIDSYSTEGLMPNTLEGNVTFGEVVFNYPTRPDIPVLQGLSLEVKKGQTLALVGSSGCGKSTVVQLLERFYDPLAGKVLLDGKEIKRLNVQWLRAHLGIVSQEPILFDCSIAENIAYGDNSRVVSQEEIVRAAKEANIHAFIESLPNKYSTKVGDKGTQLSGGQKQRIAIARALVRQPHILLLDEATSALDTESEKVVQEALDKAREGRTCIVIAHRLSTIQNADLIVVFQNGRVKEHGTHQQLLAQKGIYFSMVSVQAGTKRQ

CCn1c(=O)c(-c2ccc(Cl)cc2Cl)cc2cnc(Nc3ccc(N4CCNCC4)c(F)c3)nc21 [FRAX486]
IC50: 20 nM
